Measurements published in patent US8207155B2, “Sulfonyl-azetidin-3-yl-methylamine amide analogs as GlyTl inhibitors, methods for making same, and use of same in treating psychiatric disorders” (Vanderbilt University, priority 2009, dated 2012).

Biological target: T1, GlyT1 (Homo sapiens, UniProt P48067)
T1 construct: Human placental choriocarcinoma cells endogenously expressing GlyT1; endogenous in cells; host or cells: JAR human placental choriocarcinoma cells
T1 sequence (P48067 1-706): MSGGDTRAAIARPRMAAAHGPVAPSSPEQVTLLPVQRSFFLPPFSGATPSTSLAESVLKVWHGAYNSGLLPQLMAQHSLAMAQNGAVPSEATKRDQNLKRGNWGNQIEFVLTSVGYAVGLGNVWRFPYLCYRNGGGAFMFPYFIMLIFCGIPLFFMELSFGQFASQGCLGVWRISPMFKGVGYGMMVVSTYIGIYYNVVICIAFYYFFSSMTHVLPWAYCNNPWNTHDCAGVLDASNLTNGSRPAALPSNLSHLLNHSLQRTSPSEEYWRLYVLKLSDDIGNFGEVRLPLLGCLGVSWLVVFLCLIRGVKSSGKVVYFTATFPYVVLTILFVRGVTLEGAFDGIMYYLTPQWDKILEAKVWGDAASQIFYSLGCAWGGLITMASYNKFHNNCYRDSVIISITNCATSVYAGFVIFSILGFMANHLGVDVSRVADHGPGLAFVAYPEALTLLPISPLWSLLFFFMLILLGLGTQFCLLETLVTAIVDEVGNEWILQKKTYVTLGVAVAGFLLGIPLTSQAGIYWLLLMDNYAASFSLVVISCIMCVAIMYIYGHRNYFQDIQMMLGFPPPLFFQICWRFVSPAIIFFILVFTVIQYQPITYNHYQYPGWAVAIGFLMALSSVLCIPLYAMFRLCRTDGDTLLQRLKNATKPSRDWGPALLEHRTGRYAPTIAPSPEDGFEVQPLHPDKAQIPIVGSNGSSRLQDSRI
Test: GlyT1 [14C]-glycine uptake inhibition in human placental choriocarcinoma (JAR) cells
Format: cell-based
Conditions: inhibition of specific [14C]-glycine uptake; cells endogenously expressing GlyT1; value printed in pM; read-out: Potency (IC50)
Experimental: Human placental choriocarcinoma cells endogenously expressing GlyT1 can be cultured using standard conditions. Cells can then be grown at 37° C. in a humidified atmosphere 40-48 hours before the assay. Culture medium can be removed from the culture plate, and cells can be incubated with an amount of TB1A buffer with or without the compounds of the present invention for a sufficient period of time. Then an amount of [^14C]-glycine diluted with TB1A can be added to each well. After incubation the microplates can be sealed and counted. Non-specific uptake of [^14C]-glycine can be determined in the presence of unlabeled glycine. To determine potencies, a range of concentrations of the compounds of the present invention can be added to the cells, followed by the fixed concentration of [^14C]-glycine. The concentration of the present compound that inhibited half of the specific uptake of [^14C]glycine (IC50 value) can be determined from the assay data by non-linear curve fitting.

SMILES | IC50
Cn1cnc(S(=O)(=O)N2CC(C(NC(=O)c3ccc(Cl)cc3Cl)c3ccccc3)C2)c1 (single isomer, unassigned) [Compound 3b-1, 2,4-dichloro-N-((1(1-methyl-1H-imidazol-4-ylsulfonyl)azetidin-3-yl)(phenyl)methyl)benzamide] | 29 pM

Same assay, conditions: inhibition of specific [14C]-glycine uptake; cells endogenously expressing GlyT1; values given in μM; read-out: Potency (IC50)

SMILES | IC50
CCCS(=O)(=O)N1CC(C(NC(=O)c2ccc(Cl)cc2Cl)c2ccccc2)C1 (single isomer, unassigned) [Compound 3a-1, 2,4-dichloro-N-(phenyl(1-(propylsulfonyl)azetidin-3-yl)methyl)benzamide] | > 1e+07 pM
Cn1cnc(S(=O)(=O)N2CC(C(NC(=O)c3ccc(F)cc3)c3ccccc3)C2)c1 (centres unmarked) [Compound 9d] | > 1e+07 pM
Cn1cnc(S(=O)(=O)N2CC(C(NC(=O)c3ccccc3F)c3ccccc3)C2)c1 (centres unmarked) [Compound 9e] | 1.1e+06 pM
Cn1cnc(S(=O)(=O)N2CC(C(NC(=O)c3ccc(F)c(F)c3)c3ccccc3)C2)c1 (centres unmarked) [Compound 9i] | 1e+06 pM
Cn1cnc(S(=O)(=O)N2CC(C(NC(=O)c3cc(Cl)cc(Cl)c3)c3ccccc3)C2)c1 (centres unmarked) [Compound 9j] | 1.5e+06 pM
Cn1cnc(S(=O)(=O)N2CC(C(NC(=O)c3ccc(Cl)cc3Cl)C3CCCC3)C2)c1 (centres unmarked) [Compound 10e] | 1.6e+06 pM

Same assay, conditions: inhibition of specific [14C]-glycine uptake; cells endogenously expressing GlyT1; values in nM; read-out: Potency (IC50)

SMILES | IC50
CCCS(=O)(=O)N1CC(C(NC(=O)c2ccc(Cl)cc2Cl)c2ccccc2)C1 (single isomer, unassigned) [Compound 3a-2, 2,4-dichloro-N-(phenyl(1-(propylsulfonyl)azetidin-3-yl)methyl)benzamide] | 627000 pM
Cn1cnc(S(=O)(=O)N2CC(C(NC(=O)c3ccc(Cl)cc3Cl)c3ccccc3)C2)c1 (single isomer, unassigned) [Compound 3b-2, 2,4-dichloro-N-((1(1-methyl-1H-imidazol-4-ylsulfonyl)azetidin-3-yl)(phenyl)methyl)benzamide] | 627000 pM
CCCS(=O)(=O)N1CC(C(NC(=O)c2ccc(Cl)cc2Cl)c2ccccc2)C1 (centres unmarked) [Compound 3a, 2,4-dichloro-N-(phenyl(1-(propylsulfonyl)azetidin-3-yl)methyl)benzamide] | 730000 pM
Cn1cnc(S(=O)(=O)N2CC(C(NC(=O)c3ccc(Cl)cc3Cl)c3ccccc3)C2)c1 (centres unmarked) [Compound 3b, 2,4-dichloro-N-((1(1-methyl-1H-imidazol-4-ylsulfonyl)azetidin-3-yl)(phenyl)methyl)benzamide] | 39000 pM
Cn1cnc(S(=O)(=O)N2CC(C(NC(=O)c3ccccc3Cl)c3ccccc3)C2)c1 (centres unmarked) [Compound 9a] | 133000 pM
Cn1cnc(S(=O)(=O)N2CC(C(NC(=O)c3ccc(Cl)cc3)c3ccccc3)C2)c1 (centres unmarked) [Compound 9b] | 334000 pM
Cn1cnc(S(=O)(=O)N2CC(C(NC(=O)c3ccc(Cl)c(Cl)c3)c3ccccc3)C2)c1 (centres unmarked) [Compound 9c] | 446000 pM
Cn1cnc(S(=O)(=O)N2CC(C(NC(=O)c3c(F)cccc3F)c3ccccc3)C2)c1 (centres unmarked) [Compound 9f] | 439000 pM
Cn1cnc(S(=O)(=O)N2CC(C(NC(=O)c3ccccc3C(F)(F)F)c3ccccc3)C2)c1 (centres unmarked) [Compound 9g] | 101000 pM
Cn1cnc(S(=O)(=O)N2CC(C(NC(=O)c3ccc(F)cc3F)c3ccccc3)C2)c1 (centres unmarked) [Compound 9h] | 454000 pM
Cn1cnc(S(=O)(=O)N2CC(C(NC(=O)c3cccnc3Cl)c3ccccc3)C2)c1 (centres unmarked) [Compound 9k] | 718000 pM
CC(C)C(NC(=O)c1ccc(Cl)cc1Cl)C1CN(S(=O)(=O)c2cn(C)cn2)C1 (centres unmarked) [Compound 10a] | 394000 pM
CCCC(NC(=O)c1ccc(Cl)cc1Cl)C1CN(S(=O)(=O)c2cn(C)cn2)C1 (centres unmarked) [Compound 10b] | 185000 pM
Cn1cnc(S(=O)(=O)N2CC(C(NC(=O)c3ccc(Cl)cc3Cl)c3cccs3)C2)c1 (centres unmarked) [Compound 10c] | 40000 pM
Cn1cnc(S(=O)(=O)N2CC(C(NC(=O)c3ccc(Cl)cc3Cl)C3CC3)C2)c1 (centres unmarked) [Compound 10d] | 253000 pM
CC(C)CC(NC(=O)c1ccc(Cl)cc1Cl)C1CN(S(=O)(=O)c2cn(C)cn2)C1 (centres unmarked) [Compound 10f] | 581000 pM
Cn1cnc(S(=O)(=O)N2CC(C(NC(=O)c3ccccc3Cl)c3ccccn3)C2)c1 (centres unmarked) [Compound 10g] | 356000 pM
Cn1cnc(S(=O)(=O)N2CC(C(NC(=O)c3ccccc3C(F)(F)F)c3ccccn3)C2)c1 (centres unmarked) [Compound 10h] | 256000 pM
Cn1cnc(S(=O)(=O)N2CC(C(NC(=O)c3ccc(Cl)cc3)c3ccccn3)C2)c1 (centres unmarked) [Compound 10i] | 940000 pM
